The values that follow come from US20100003246A1, “Novel heterocyclic compounds and uses therof” (priority 2008, published 2010).

The IC50 is the concentration at which inhibition is half-maximal.

This assay deals with T1, b-Raf(V600E) (Homo sapiens, UniProt P15056, V600E).
T1 construct: made in house
T1 sequence (P15056 whole entry V600E): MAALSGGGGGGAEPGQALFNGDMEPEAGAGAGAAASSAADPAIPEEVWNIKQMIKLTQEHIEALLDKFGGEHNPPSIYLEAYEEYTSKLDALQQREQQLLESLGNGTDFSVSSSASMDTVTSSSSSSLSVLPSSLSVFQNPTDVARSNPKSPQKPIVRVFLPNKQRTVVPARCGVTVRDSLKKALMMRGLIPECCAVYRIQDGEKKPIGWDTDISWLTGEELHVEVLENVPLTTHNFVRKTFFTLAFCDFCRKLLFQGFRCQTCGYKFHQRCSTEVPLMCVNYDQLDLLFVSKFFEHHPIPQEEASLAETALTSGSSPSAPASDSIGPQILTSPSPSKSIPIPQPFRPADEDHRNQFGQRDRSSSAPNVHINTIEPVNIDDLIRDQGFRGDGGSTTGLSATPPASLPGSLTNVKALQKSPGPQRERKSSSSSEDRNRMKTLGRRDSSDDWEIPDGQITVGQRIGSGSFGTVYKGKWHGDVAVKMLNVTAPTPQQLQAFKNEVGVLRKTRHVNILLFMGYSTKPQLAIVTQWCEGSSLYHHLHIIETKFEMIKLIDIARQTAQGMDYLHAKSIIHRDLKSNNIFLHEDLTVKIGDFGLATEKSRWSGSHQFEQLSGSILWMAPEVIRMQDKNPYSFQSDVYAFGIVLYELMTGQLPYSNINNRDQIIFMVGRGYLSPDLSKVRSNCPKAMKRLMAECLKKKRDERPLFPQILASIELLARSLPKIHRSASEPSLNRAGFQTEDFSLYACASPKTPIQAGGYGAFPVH
In words: Raf/Mek Amplified Luminescence Proximity Homogeneous Assay (Alpha Screen), b-Raf(V600E). Format: biochemical. Conditions: mutant b-Raf(V600E), read-out: mut-b-RAF (IC50 in uM). The protocol: Assay buffer: 50 mM Tris, pH 7.5, 15 mM MgCl2, 0.01% BSA, 1 mM DTT Stop buffer: 60 mM EDTA, 0.01% Tween20 Bead buffer: 50 mM Tris, pH 7.5, 0.01% Tween20
b-Raf(V600E), active: Recombinant in-house material biotinylated Mek, kinase dead: Recombinant in-house material Alpha Screen detection kit PerkinElmer, #6760617R Anti phospho-MEK½ Cell signaling #9121 384 well assay plates: White Greiner plates, #781207
b-Raf(V600E) approximately 4 pM c-Raf approximately 4 nM biotinylated Mek, Kinase dead approximately 10 nM
Pre-incubation time with compounds 60 min at room temperature Reaction time 1 or 3 hours at room temperature
Raf and biotinylated Mek, kinase dead, were combined at 2× final concentrations in assay buffer (50 mM Tris, pH 7.5, 15 mM MgCl2, 0.01% BSA and 1 mM DTT) and dispensed 10 μl per well in assay plates (Greiner white 384 well assay plates #781207) containing 0.5 μl of 40× of a raf kinase inhibitor test compound diluted in 100% DMSO. The plate was incubated for 60 min at room temperature.
The Raf kinase activity reaction was started by the addition of 10 μl per well of 2×ATP diluted in assay buffer. After 3 hours (bRaf(V600E)) or 1 hour (c-Raf), the reactions were stopped with the addition of 10 μl of stop reagent (60 mM EDTA). Phosphorylated product was measured using a rabbit anti-p-MEK (Cell Signaling, #9121) antibody and the Alpha Screen IgG (Protein A) detection Kit (PerkinElmer #6760617R), by the addition of 30 μL to the well of a mixture of the antibody (1:2000 dilution) and detection beads (1:2000 dilution of both beads) in bead buffer (50 mM Tris, pH 7.5, 0.01% Tween20). The additions were carried out under dark conditions to protect the detection beads from light. A lid was placed on top of the plate and incubated for 1 hour at room temperature, then the luminescence was read on a PerkinElmer Envision instrument. The concentration of each compound for 50% inhibition (IC50) was calculated by non-linear regression using XL Fit data analysis software.
The Raf/Mek Amplified Luminescence Proximity Homogeneous Assay described was used to generate the luminescence and mutant b-Raf(V600E) IC50 data for selected Raf Kinase Inhibitors shown in Table 1 above.
On to `COCC(=O)N[C@@H](C)CNc1nccc(-c2[nH]c(-c3ccc(C(F)(F)F)cc3F)nc2-c2cnc(N)c(OC)n2)n1` [Compound 247, (S)-N-(1-(4-(4-(5-amino-6-methoxypyrazin-2-yl)-2-(2-fluoro-4-(trifluoromethyl)phenyl)-1H-imidazol-5-yl)pyrimidin-2-ylamino)propan-2-yl)-2-methoxyacetamide], for which the IC50 is 0.0001 µM.

For the compound `COc1cc(Nc2nccc(-c3[nH]c(C)nc3-c3cnc(N)c(OC)n3)n2)ccn1` [Compound 245, 4-(4-(5-amino-6-methoxypyrazin-2-yl)-2-methyl-1H-imidazol-5-yl)-N-(2-methoxypyridin-4-yl)pyrimidin-2-amine], the IC50 turned out to be 0.011 µM.

As to `Nc1ncc(-c2[nH]c(-c3ccccc3)nc2-c2ccncc2)cn1` [Compound 25, 5-(2-phenyl-4-(pyridin-4-yl)-1H-imidazol-5-yl)pyrimidin-2-amine], the IC50 is 0.489 µM.

Turning to `COC(=O)N[C@@H](C)CNc1nccc(-c2nc(C(C)(C)C)[nH]c2-c2cnc(N)c(C(C)=O)c2)n1` [Compound 235, (S)-methyl-1-(4-(5-(5-acetyl-6-aminopyridin-3-yl)-2-tert-butyl-1H-imidazol-4-yl)pyrimidin-2-ylamino)propan-2-ylcarbamate], the IC50 stood at 0.0004 µM.

As to `COc1cc(-c2nc(-c3ccn(C)n3)[nH]c2-c2ccncc2)cnc1N` [Compound 119, 3-methoxy-5-(2-(1-methyl-1H-pyrazol-3-yl)-5-(pyridin-4-yl)-1H-imidazol-4-yl)pyridin-2-amine], the IC50 is 0.0019 µM.

`COc1cc(-c2nc(-c3ccc(OC(F)(F)F)cc3)[nH]c2-c2ccncc2)cnc1N` [Compound 79, 3-methoxy-5-(5-(pyridin-4-yl)-2-(4-(trifluoromethoxy)phenyl)-1H-imidazol-4-yl)pyridin-2-amine]: the IC50 came to 0.002 µM.

In the case of `COc1cc(-c2[nH]c(-c3ccccc3)nc2-c2ccnc(N[C@H]3CCCN(S(=O)(=O)c4ccc(Cl)cc4)C3)n2)cnc1N` [Compound 62, (S)-4-(5-(6-amino-5-methoxypyridin-3-yl)-2-phenyl-1H-imidazol-4-yl)-N-(1-(4-chlorophenylsulfonyl)piperidin-3-yl)pyrimidin-2-amine], the IC50 came to 0.0003 µM.

Take `COc1cc(-c2[nH]c(-c3ccc(F)cc3)nc2-c2ccnc(NCCNS(=O)(=O)C3CC3)n2)cnc1N` [Compound 98, N-(2-(4-(5-(6-amino-5-methoxypyridin-3-yl)-2-(4-fluorophenyl)-1H-imidazol-4-yl)pyrimidin-2-ylamino)ethyl)cyclopro-panesulfonamide]: the IC50 was 0.0001 µM.

In the case of `COc1ccc(-c2nc(-c3ccncc3)c(-c3cnc(N)c(OC)c3)[nH]2)cc1` [Compound 69, 3-methoxy-5-(2-(4-methoxyphenyl)-4-(pyridin-4-yl)-1H-imidazol-5-yl)pyridin-2-amine], the IC50 was 0.0003 µM.

Take `COc1cc(Nc2nccc(-c3[nH]c(C(C)C)nc3-c3cnc(N)c(OC)c3)n2)ccn1` [Compound 231, 4-(4-(6-amino-5-methoxypyridin-3-yl)-2-isopropyl-1H-imidazol-5-yl)-N-(2-methoxypyridin-4-yl)pyrimidin-2-amine]: the IC50 came to 0.0002 µM.

Regarding `COCC(=O)N1CCC[C@@H](Nc2nccc(-c3nc(-c4ccc(C(F)(F)F)cc4)[nH]c3-c3cnc(N)c(OC)c3)n2)C1` [Compound 97, (R)-1-(3-(4-(5-(6-amino-5-methoxypyridin-3-yl)-2-(4-(trifluoromethyl)phenyl)-1H-imidazol-4-yl)pyrimidin-2-ylamino)piperidin-1-yl)-2-methoxyethanone], the IC50 was found to be 0.031 µM.

In the case of `Fc1ccc(-c2nc(-c3ccncc3)c(-c3cnc4[nH]cc(Cl)c4c3)[nH]2)cc1` [Example 12, 3-chloro-5-(2-(4-fluorophenyl)-4-(pyridine-4-yl)-1H-imidazol-5-yl)-1H-pyrrolo[2,3-b]pyridine], the IC50 stood at 0.002 µM.

As for `COCC(=O)N[C@H](C)CNc1nccc(-c2[nH]c(-c3ccc(F)cc3)nc2-c2cnc(N)c(OC)n2)n1` [Compound 249, (R)-N-(1-(4-(4-(5-amino-6-methoxypyrazin-2-yl)-2-(4-fluorophenyl)-1H-imidazol-5-yl)pyrimidin-2-ylamino)propan-2-yl)-2-methoxyacetamide], the IC50 came to 0.012 µM.

For `COc1cc(-c2nc(C(C)(C)C)[nH]c2-c2ccnc(Nc3ccc(C(F)(F)F)cc3)n2)cnc1N` [Compound 221, 4-(4-(6-amino-5-methoxypyridin-3-yl)-2-tert-butyl-1H-imidazol-5-yl)-N-(4-(trifluoromethyl)phenyl)-pyrimidin-2-amine], the IC50 is 0.0002 µM.

In the case of `CC[C@H](C)Nc1nccc(-c2nc(-c3ccc(F)cc3)[nH]c2-c2cnc(N)c(OC)c2)n1` [Compound 176, (S)-4-(5-(6-amino-5-methoxypyridin-3-yl)-2-(4-fluorophenyl)-1H-imidazol-4-yl)-N-sec-butylpyrimidin-2-amine], the IC50 is 0.0046 µM.

As to `COc1cc(-c2nc(-c3ccc(F)cc3)[nH]c2-c2ccnc(Nc3cccc(C(F)(F)F)c3)n2)cnc1N` [Compound 171, 4-(4-(6-amino-5-methoxypyridin-3-yl)-2-(4-fluorophenyl)-1H-imidazol-5-yl)-N-(3-(trifluoromethyl)phenyl) pyrimidin-2-amine], the IC50 was 0.0013 µM.

With `COc1cc(-c2[nH]c(-c3ccc(F)cc3)nc2-c2ccnc(Nc3ccc(N4C[C@@H](C)O[C@@H](C)C4)nc3)n2)cnc1N` [Compound 187, 4-(5-(6-amino-5-methoxypyridin-3-yl)-2-(4-fluorophenyl)-1H-imidazol-4-yl)-N-(6-((2S,6R)-2,6-dimethylmorpholino)-pyridin-3-yl)pyrimidin-2-amine], the concentration for half-maximal inhibition (IC50) stood at 0.0005 µM.

On to `COc1cc(-c2nc(-c3cc(F)cc(F)c3)[nH]c2-c2ccncc2)cnc1N` [Compound 78, 5-(2-(3,5-difluorophenyl)-5-(pyridin-4-yl)-1H-imidazol-4-yl)-3-methoxypyridin-2-amine], for which the IC50 worked out at 0.001 µM.

For `COCC(=O)N[C@@H](C)CNc1nccc(-c2oc(-c3ccc(C(F)(F)F)cc3)nc2-c2cnc(N)c(OC)n2)n1` [Compound 229, (S)-N-(1-(4-(4-(5-amino-6-methoxypyrazin-2-yl)-2-(4-(trifluoromethyl)phenyl)-oxazol-5-yl)pyrimidin-2-ylamino)propan-2-yl)-2-methoxyacetamide], the IC50 came out at 0.003 µM.

For the compound `COc1cc(-c2[nH]c(C3CC3)nc2-c2ccncc2)cnc1N` [Compound 76, 5-(2-cyclopropyl-4-(pyridin-4-yl)-1H-imidazol-5-yl)-3-methoxypyridin-2-amine], the IC50 stood at 0.0015 µM.

For `COc1cc(-c2[nH]c(-c3cccc(C(C)C)c3)nc2-c2ccncc2)cnc1N` [Compound 115, 5-(2-(3-isopropylphenyl)-4-(pyridin-4-yl)-1H-imidazol-5-yl)-3-methoxypyridin-2-amine], the IC50 came to 0.003 µM.

For `COc1cc(-c2[nH]c(-c3ccc(F)cc3)nc2-c2ccnc(N[C@@H]3CCN(S(C)(=O)=O)C3)n2)cnc1N` [Compound 199, (R)-4-(5-(6-amino-5-methoxypyridin-3-yl)-2-(4-fluorophenyl)-1H-imidazol-4-yl)-N-(1-(methylsulfonyl)pyrrolidin-3-yl)pyrimidin-2-amine], the IC50 was determined as 0.015 µM.

Regarding `CN(C)c1cncc(-c2[nH]c(-c3ccc(F)cc3)nc2-c2ccncc2)c1` [Compound 157, 5-(2-(4-fluorophenyl)-4-(pyridin-4-yl)-1H-imidazol-5-yl)-N,N-dimethylpyridin-3-amine], the IC50 worked out at 0.017 µM.
